This note sets out measurements from patent US6060471A, “Reduction of hair growth” (priority 1998, dated 2000).

The structures appear in SMILES notation. Where two headings read alike, the source gives them in different places. Where only a bound is given, the exact number is not on record here.

Experiment [1] has as its system flank organs of Golden Syrian hamsters (hair growth). The experiment is described as follows: Golden Syrian hamster assay (flank organ hair mass). It counts as in vivo. The note with it: for inhibition in vivo at 10 %: read-out: % Inhibition (hair mass). The text has this:
Male intact Golden Syrian hamsters are considered acceptable models for human beard hair growth in that they display oval shaped flank organs, one on each side, each about 8 mm. in major diameter, which grow thick black and coarse hair similar to human beard hair. These organs produce hair in response to androgens in the hamster. To evaluate the effectiveness of a composition including an inhibitor of the hypusine biosynthetic pathway, the flank organs of each of a group of hamsters are depilated by applying a thioglycolate based chemical depilatory (Surgex) and/or shaved. To one organ of each animal 10 μl. of vehicle alone once a day is applied, while to the other organ of each animal an equal amount of vehicle containing an inhibitor of the hypusine biosynthetic pathway is applied. After thirteen applications (one application per day for five days a week), the flank organs are shaved and the amount of recovered hair (hair mass) from each is weighed. Percent-reduction of hair growth is calculated by subtracting the hair mass (mg) value of the test compound treated side from the hair mass value of the vehicle treated side; the delta value obtained is then divided by the hair mass value of the vehicle treated side, and the resultant number is multiplied by 100.
The above-described assay will be referred to herein as the "Golden Syrian hamster" assay.
This vehicle also was used in the testing described below.

Experiment [2] relates to 18 kD human hair follicle protein (eIF-5A). The experiment can be described thus: Incorporation of 3H-spermidine into 18 kD human hair follicle proteins. Format: cell-based. The note with it: inhibitor 0.2 mM, follicles cultured 48 hours, 3H-spermidine 6 hours; for % Reduction of 3H-spermidine incorporation: 2880 min, 200 µM. The procedure: Human hair follicles derived from face lift procedures were isolated and placed in Williams E medium containing antibiotics, glutamine, insulin and hydrocortisone. Follicles were cultured for 48 hours at 37° C. in the presence of 1,6-diaminohexane (0.2 mM), 1,8-diaminooctane (0.2 mM), ciclopiroxolamine (0.2 mM) or hydralazine (0.2 mM). Control follicles were maintained in Williams E without any inhibitors present. At the end of the 48 hour period, ^3 H-spermidine […] was added to the culture for 6 hours. The hair follicles were washed in phosphate buffered saline to remove nonincorporated ^3 H-spermidine, and the follicles were homogenized in a buffer, pH 7.4, containing Tris (50 mM) and sucrose (0.5 mM). Hair follicle protein was applied to a 10% polyacrylamide gel. After the proteins were separated on the gel using a constant voltage (125 V), they were stained with coomassie blue. […] The protein bands were cutout of the gel and solubilized with BTS-450 (Beckman). The liquid scintillation fluid Econoscint (12 mL) was added to each sample, which was analyzed for ^3 H-spermidine incorporation by scintillation spectrometry.

[3] abbreviates: Table I, dose 10%, topical, 13 applications, pH per compound 6.0-8.5.
[4] abbreviates: Mesocricetus auratus, Table I, dose 10%, topical, 13 applications, pH per compound 6.0-8.5.

With `NCCCCCCN` [1,6-Diaminohexane, 1,6-diaminohexane], the inhibition in vivo at 10 % in experiment [1] (Mesocricetus auratus, topical) is 51 ± 5%. Also, the “Hair Mass, Treated” value in experiment [1] (setting [3]) is listed as 1.50 ± .20 mq. Further, in experiment [2], the “Incorporation of 3H-spermidine” value is < 1.0 pmol/mg protein and the “% Reduction of 3H-spermidine incorporation” value (“% Reduction” below) is 100%. For the same compound, the “% Reduction” value in experiment [2] (listed as 1,6-diaminohexane) is given as 47-100%.
Regarding `NCCCCCCCN` [1,7-Diaminoheptane, 1,7-diaminoheptane], the inhibition in vivo at 10 % in experiment [1] (setting [4]) worked out at 67 ± 4%. The “Hair Mass, Treated” value in experiment [1] (setting [3]) was 0.80 ± .11 mq.
Turning to `NCCCCCCCCN` [1,8-Diaminooctane, 1,8-diaminooctane], the inhibition in vivo at 2 % in experiment [1] (Mesocricetus auratus, topical, Table II, dose 2%, pH 9.0) was 24 ± 8%. The same compound came in with an inhibition in vivo at 5 % in experiment [1] (Mesocricetus auratus, topical, Table II, dose 5%, pH 9.0) of 48 ± 10%. Also, the inhibition in vivo at 10 % in experiment [1] (Mesocricetus auratus, topical, Table II, dose 10%, pH 8.0) worked out at 74 ± 6%; in experiment [1] (setting [4]), 74 ± 6%. In addition, the “Hair Mass, Treated” value in experiment [1] (setting [3]) is recorded as 0.70 ± .12 mq; in experiment [1] (Table II, dose 2%, pH 9.0), 1.88 ± .25 mg; in experiment [1] (Table II, dose 5%, pH 9.0), 1.86 ± .37 mg; in experiment [1] (Table II, dose 10%, pH 8.0), 0.70 ± .12 mg. For the same compound, the “Incorporation of 3H-spermidine” value in experiment [2] is listed as < 1.0 pmol/mg protein. The “% Reduction” value in experiment [2] is 100%; in experiment [2] (listed as 1,8-diaminooctane), 47-100%.
With `NCCCCCCCCCN` [1,9-Diaminononane, 1,9-diaminononane], the inhibition in vivo at 10 % in experiment [1] (setting [4]) amounted to 50 ± 13%. The “Hair Mass, Treated” value in experiment [1] (setting [3]) is 1.27 ± .56 mq.
Regarding `NCCCCCN` [Cadaverine, cadaverine], the inhibition in vivo at 10 % in experiment [1] (setting [4]) amounted to 43 ± 4%. The “Hair Mass, Treated” value in experiment [1] (setting [3]) is given as 1.91 ± .15 mq.
Consider `Cc1cc(C2CCCCC2)n(O)c(=O)c1` [Ciclopiroxolamine, ciclopiroxolamine], for which, in experiment [1] (Mesocricetus auratus, topical, Table III, dose 10%, pH 9.0), the inhibition in vivo at 10 % turned out to be 44%. Also, in experiment [1] (Table III, dose 10%, pH 9.0), the “% Inhibition (hair mass)” value is reported as 44 ± 17% and the “Hair Mass, Treated” value is given as 0.92 ± .21 mg. Further, in experiment [2], the “Incorporation of 3H-spermidine” value was < 1.0 pmol/mg protein and the “% Reduction” value was 100%. For the same compound, the “% Reduction” value in experiment [2] (listed as ciclopiroxolamine) is on record as 47-100%.
In experiment [1] (Mesocricetus auratus, topical, Table III, dose 5%, pH 5.0), `NNc1nncc2ccccc12` [Hydralazine, hydralazine] yielded an inhibition in vivo at 5 % of 33%. For the same compound, in experiment [1] (Table III, dose 5%, pH 5.0), the “% Inhibition (hair mass)” value worked out at 33 ± 7% and the “Hair Mass, Treated” value was 1.38 ± .14 mg. For the same compound, in experiment [2] (Homo sapiens, 48 h, read-out: % Reduction of 3H-spermidine incorporation), the inhibition at 200 µM was 47 to 100%. In experiment [2], the “Incorporation of 3H-spermidine” value is given as 10.3 pmol/mg protein and the “% Reduction” value is listed as 47%.
Turning to `NCCCCN(CCCN)Cc1ccccc1` [N^4 -Benzylspermidine, N^4 -benzyl-spermidine], the inhibition in vivo at 10 % in experiment [1] (setting [4]) turned out to be 62 ± 4%. Further, in experiment [1] (setting [3]), the “Hair Mass, Treated” value was 1.05 ± .12 mq.
